These results are taken from patent US8778303B2, “99mTc-labeled 19 amino acid containing peptide for use as phosphatidylethanolamine binding molecular probe and radiopharmaceutical” (The Medical College of Wisconsin, Inc., priority 2008, dated 2014).

Data set [1] can be described thus: Cysteine challenge stability test. In kind it is physicochemical. The note with it: cysteine-to-Duramycin ratio of 100:1. The protocol: HPLC method 2. Jupiter C18 column (90 Å pore size, 250×4.6 mm) was used with a buffered mobile phase system consisting of phosphate buffer (10 mM sodium phosphate, pH 6.7) and acetonitrile at a flow rate of 1.0 ml/min at room temperature. A baseline of 5 min at 90% buffer A (phosphate buffer, pH6.7) and 10% buffer B (acetonitrile) was followed by a linear gradient to 10% buffer A and 90% buffer B in 30 min. The level of radioactivity in the HPLC elute was monitored by gamma counting at an energy window of 140±15 keV.
HYNIC-Duramycin was labeled with ^99mTc using the tricine-phosphine co-ligand system. Specifically, 15 μg of HYNIC-Duramycin was mixed with 40 mg of tricine, 1 mg of TPPTS and 20 μg SnCl2 in 0.8 ml at pH 5.3. The labeling was initiated with the addition of about 1 mCi of ^99mTc. The incubation was allowed to proceed for 40 min at room temperature. The final radiopharmaceutical, ^99mTc-HYNIC-Duramycin, was analyzed and purified using HPLC method 2. After purification, acetonitrile was removed by evaporation under nitrogen, and ^99mTc-HYNIC-Duramycin was reconstituted in saline for usage. ^99mTc-HYNIC-Duramycin^1 was synthesized in the same fashion. For stability tests, cysteine challenge was carried out at a cysteine-to-^99mTc-Duramycin ratio of 100 to 1, in 0.01 mM phosphate buffer (pH 6.8) for 2 hr at room temperature. The sample was analyzed with radioHPLC (method 2).

The conditions of data set [2]: liposomes; bind PtdE at equal-molar ratio; cited from earlier work.
The conditions of data set [3]: literature (McNulty 2003); cited from earlier work.
For data set [4] the following is noted: humans, including patients with Cystic Fibrosis; cited from earlier work.
The target in another data set is rat serum albumin (rat, UniProt P02770 25-608). The experiment in a line: radioHPLC analysis of the tracer in the presence of rat serum albumin.
rat serum albumin, sequence (P02770 25-608 limits assumed): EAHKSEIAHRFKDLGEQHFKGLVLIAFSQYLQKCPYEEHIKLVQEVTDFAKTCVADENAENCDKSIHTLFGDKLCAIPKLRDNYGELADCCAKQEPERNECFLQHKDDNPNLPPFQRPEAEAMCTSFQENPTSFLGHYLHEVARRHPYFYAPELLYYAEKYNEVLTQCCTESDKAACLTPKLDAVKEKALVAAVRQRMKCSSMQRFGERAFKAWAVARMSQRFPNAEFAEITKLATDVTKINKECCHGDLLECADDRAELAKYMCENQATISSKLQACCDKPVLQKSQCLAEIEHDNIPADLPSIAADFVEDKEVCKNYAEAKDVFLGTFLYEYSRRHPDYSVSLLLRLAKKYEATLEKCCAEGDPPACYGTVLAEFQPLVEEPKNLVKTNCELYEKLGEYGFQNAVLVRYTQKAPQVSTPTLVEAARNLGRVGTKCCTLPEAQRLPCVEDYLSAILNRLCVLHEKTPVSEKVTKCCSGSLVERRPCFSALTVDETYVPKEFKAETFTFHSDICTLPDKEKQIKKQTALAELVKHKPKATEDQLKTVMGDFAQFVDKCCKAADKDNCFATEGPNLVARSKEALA

Where no end group is shown, it is not given here.

For “19-amino acid peptide produced by Streptoverticillium cinnamoneus, CKQSCSFGPFTFVCDGNTK (SEQ ID NO 1), binds PtdE [Duramycin]”, the “radioactivity associated with the peptide diminished/reduced in cysteine challenge” value in data set [1] was 90%. Further, the dissociation constant result in data set [2] was “nanomolar range”. In data set [3], the hepatic retention entry is reported as “retained for an extended duration (e.g., many days) in the liver without complete washout”. For the same molecule, in data set [4], the “toxicity and immunogenicity in clinical testing” value is “lack of significant toxicity and immunogenicity”.

On to “homolog of Duramycin with Arg replacing Lys at position two, CRQSCSFGPFTFVCDGNTK (SEQ ID NO 2) (not fully specified (bridges); ends and bridges not checked; also: lanthionine bridges, places not given here; listed as Streptoverticillium cinnamoneus) [Cinnamycin]”, for which the dissociation constant result in data set [2] was “nanomolar range”.

B1: ^99mTc-HYNIC-Duramycin (peptide)
peptide: CKQSCSFGPFTFVCDGNTK
modifications: thioether bonds between positions 1-18, 4-14 and 5-11; amide bond between positions 6 and 19; one HYNIC (6-hydrazinopyridine-3-carboxylic acid) moiety on either Cys-1 or Lys-2, chelating 99mTc with tricine and TPPTS co-ligands
notes: Lantibiotic peptide, cross-linked; also called 99mTc-Duramycin; radiolabeled Duramycin
Regarding B1, the binding result with rat serum albumin was “no binding”.
